Experimental data published in patent US9181181B2, “2-substituted-3-phenylpropionic acid derivatives and their use in the treatment of inflammatory bowel disease” (Albireo AB, priority 2007, dated 2015).

Legend:
human PPARalpha = human PPARalpha (Homo sapiens (Human), UniProt Q07869); experiment: Transactivation (reporter gene) assay, GAL4-PPARalpha LBD in U-2 OS cells; assay type: cell-based; settings: 40 h incubation, 16 μM ETYA as 100% control, read-out: EC50 PPARα
Method: (§1) Transactivation Assay Expression vectors were prepared by inserting the ligand binding domain cDNA (complementary DNA) of human PPARalpha (amino acid 168-468) and human PPARgamma (amino acid 205-505), 3′ to and in frame with, the yeast GAL4 transcription factor DNA binding domain and the nuclear localization signal from the T-antigen of Polyoma Virus into the mammalian expression vector pSGS (Stratagene). The resulting expression vectors pSGGAL-PPARalpha and pSGGAL-PPARgamma were used in co-transfection experiments together with a modified pGL3 promoter plasmid (Promega) containing five copies of the UAS GAL4 recognition site. 2.5 μg pSGGAL-PPARalpha or pSGGAL-PPARgamma were mixed with 25 μg pGL3p […] and 22.5 μg pBluescript (Stratagene) in 0.95 mL ice cold PBS containing between 9-12 million U-2 OS (human osteosarcoma) cells. The cell/DNA mixture was incubated on ice for 5 minutes and then divided between two 0.4 cm cuvettes and electroporated at 960 μF, 230 V using a BioRad electroporator. The two electroporation mixes were combined in assay medium [Dulbecco's Modified Eagle Medium w/o phenol red, (Gibco 11880-028) including 10% FBS (Foetal Bovine Serum), 1% PEST (Penicillin & Streptomycin), 20 mM Hepes, 2 mM L-Glutamine and 0.36% Glucose (Gibco 31966-021)] at 0.32 million cells/ml. 25 μl diluted, electroporated cells, were seeded into 384-well plates and allowed to adhere for 3-4 h at 37° C., 5% CO2 in a cell culture incubator. Test compounds in DMSO were diluted 40 fold in assay medium. 7 μl of diluted compound was added to the adhered electroporated cells and incubation was continued for 40 h in a cell culture incubator. Cells were lysed by adding 32 μl/well LucLite (Packard) and incubated at room temperature for 15 minutes. Luciferase activity was measured using a luminometry protocol on a Wallac Victor2 plate reader. 16 μM ETYA was used as the 100% control for humanPPARalpha activity and 16 μM Pioglitazone was used as the 100% control for humanPPARgamma activity. In Vivo Assay Determination of Plasma Clearance and Oral Bioavailability in Hamster or Mouse

human PPARgamma = human PPARgamma (Homo sapiens (Human), UniProt P37231); experiment: Transactivation (reporter gene) assay, GAL4-PPARgamma LBD in U-2 OS cells; assay type: cell-based; settings: 40 h incubation, 16 μM Pioglitazone as 100% control, read-out: EC50 PPARγ
Sequence of human PPARgamma (P37231 205-505): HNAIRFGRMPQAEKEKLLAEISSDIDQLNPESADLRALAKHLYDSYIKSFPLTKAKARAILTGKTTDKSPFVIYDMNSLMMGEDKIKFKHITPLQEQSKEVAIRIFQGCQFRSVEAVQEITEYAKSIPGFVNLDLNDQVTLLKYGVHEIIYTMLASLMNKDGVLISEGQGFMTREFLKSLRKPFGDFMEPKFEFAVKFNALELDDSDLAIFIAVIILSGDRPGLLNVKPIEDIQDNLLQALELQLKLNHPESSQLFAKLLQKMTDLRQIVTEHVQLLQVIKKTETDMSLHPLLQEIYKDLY
Method: as §1

Sequence of human PPARalpha (Q07869 168-468): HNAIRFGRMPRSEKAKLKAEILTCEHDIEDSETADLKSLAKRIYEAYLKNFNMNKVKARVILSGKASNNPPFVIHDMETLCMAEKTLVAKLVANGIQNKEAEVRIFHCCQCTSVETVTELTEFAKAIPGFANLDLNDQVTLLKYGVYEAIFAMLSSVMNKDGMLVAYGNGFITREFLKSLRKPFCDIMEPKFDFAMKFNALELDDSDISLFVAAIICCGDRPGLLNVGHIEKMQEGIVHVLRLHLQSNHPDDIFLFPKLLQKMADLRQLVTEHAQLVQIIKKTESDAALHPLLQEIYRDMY

Compound | EC50 (human PPARalpha) [µM] | EC50 (human PPARgamma) [µM]
Cc1oc(-c2ccccc2)nc1CCOC(=O)c1ccc(CC(SCCc2ccc(F)cc2)C(=O)O)cc1 (single isomer, unassigned) [Example 20, 4-{(−)-2-Carboxy-2-[2-(4-fluoro-phenyl)-ethylsulfanyl]-ethyl}-benzoic acid 2-(5-methyl-2-phenyl-oxazol-4-yl)-ethyl ester] | 0.84 | 0.072
Cc1oc(-c2ccccc2)nc1CC(=O)OCc1ccc(CC(SCCc2ccc(F)cc2)C(=O)O)cc1 (single isomer, unassigned; (-)) [Example 19, (−)-2-[2-(4-Fluoro-phenyl)-ethylsulfanyl]-3-{4-[2-(5-methyl-2-phenyl-oxazol-4-yl)-acetoxymethyl]-phenyl}-propionic acid] | 0.072 | 0.47
O=C(Cc1ccc(CC(SCCc2ccc(F)cc2)C(=O)O)cc1)OCc1ccc(C(F)(F)F)cc1 (stereo not drawn) [Example 3, 2-[2-(4-Fluoro-phenyl)-ethylsulfanyl]-3-[4-(4-trifluoromethyl-benzyloxycarbonylmethyl)-phenyl]-propionic acid] | 0.056 | 1.7
CS(=O)(=O)Oc1ccc(COC(=O)Cc2ccc(CC(SCCc3ccc(F)cc3)C(=O)O)cc2)cc1 (stereo not drawn) [Example 4, 2-[2-(4-Fluoro-phenyl)-ethylsulfanyl]-3-[4-(4-methanesulfonyloxy-benzyloxycarbonylmethyl)-phenyl]-propionic acid] | 1.4 | 
CS(=O)(=O)Oc1ccc(CC(=O)OCCc2ccc(CC(SCCc3ccc(F)cc3)C(=O)O)cc2)cc1 (stereo not drawn) [Example 5, 2-[2-(4-Fluoro-phenyl)-ethylsulfanyl]-3-(4-{2-[2-(4-methanesulfonyloxy-phenyl)-acetoxy]-ethyl}-phenyl)-propionic acid] | 0.2 | 6
CS(=O)(=O)Oc1ccc(CC(=O)OCCCc2ccc(CC(SCCc3ccc(F)cc3)C(=O)O)cc2)cc1 (stereo not drawn) [Example 6, 2-[2-(4-Fluoro-phenyl)-ethylsulfanyl]-3-(4-{3-[2-(4-methanesulfonyloxy-phenyl)-acetoxy]-propyl}-phenyl)-propionic acid] | 0.33 | 18
CC(C(=O)OCc1ccc(CC(SCCc2ccc(F)cc2)C(=O)O)cc1)c1ccccc1 (stereo not drawn) [Example 7, 2-[2-(4-Fluoro-phenyl)-ethylsulfanyl]-3-[4-(2-phenyl-propionyloxymethyl)-phenyl]-propionic acid] | 18 | 1.7
COc1ccc(CC(=O)OCc2ccc(CC(SCCc3ccc(F)cc3)C(=O)O)cc2)cc1 (stereo not drawn) [Example 8] | 0.27 | 2.5
CC(C)Cc1ccc(C(C)C(=O)OCc2ccc(CC(SCCc3ccc(F)cc3)C(=O)O)cc2)cc1 (stereo not drawn) [Example 9, 2-[2-(4-Fluoro-phenyl)-ethylsulfanyl]-3-{4-[2-(4-isobutyl-phenyl)-propionyloxymethyl]-phenyl}-propionic acid] | 1.5 | 0.93
CN1CCN(CC(=O)OCc2ccc(CC(SCCc3ccc(F)cc3)C(=O)O)cc2)CC1 (stereo not drawn) [Example 11, 2-[2-(4-Fluoro-phenyl)-ethylsulfanyl]-3-{4-[2-(4-methyl-piperazin-1-yl)-acetoxymethyl]-phenyl}-propionic acid] | 0.15 | 0.81
O=C(OCc1nc(-c2ccccc2)oc1C(F)(F)F)c1ccc(CC(SCCc2ccc(F)cc2)C(=O)O)cc1 (stereo not drawn) [Example 12, 4-{2-Carboxy-2-[2-(4-fluoro-phenyl)-ethylsulfanyl]-ethyl}-benzoic acid 2-phenyl-5 trifluoromethyl-oxazol-4-ylmethyl ester] |  | 0.058
O=C(OCc1ccc(CC(SCCc2ccc(F)cc2)C(=O)O)cc1)c1nc(-c2ccccc2)oc1C(F)(F)F (stereo not drawn) [Example 13, 2-Phenyl-5-trifluoromethyl-oxazole-4-carboxylic acid 4-{2-carboxy-2-[2-(4-fluoro-phenyl)-ethylsulfanyl]-ethyl}-benzyl ester] | 0.012 | 0.03
Cc1oc(-c2ccccc2)nc1CCOC(=O)c1ccc(CC(SCCc2ccc(F)cc2)C(=O)O)cc1 (stereo not drawn) [Example 14, 4-{2-Carboxy-2-[2-(4-fluoro-phenyl)-ethylsulfanyl]-ethyl}-benzoic acid 2-(5-methyl-2 phenyl-oxazol-4-yl)-ethyl ester] | 1.4 | 0.11
Cc1oc(-c2ccccc2)nc1CC(=O)OCc1ccc(CC(SCCc2ccc(F)cc2)C(=O)O)cc1 (stereo not drawn) [Example 15, 2-[2-(4-Fluoro-phenyl)-ethylsulfanyl]-3-{4-[2-(5-methyl-2-phenyl-oxazol-4-yl)acetoxymethyl]-phenyl}-propionic acid] | 0.13 | 0.84
CS(=O)(=O)Oc1ccc(COC(=O)c2ccc(CC(SCCc3ccc(F)cc3)C(=O)O)cc2)cc1 (stereo not drawn) [Example 16, 4-{2-Carboxy-2-[2-(4-fluoro-phenyl)-ethylsulfanyl]-ethyl}-benzoic acid 4-methanesulfonyloxy-benzyl ester] | 1.1 | 
O=C(Cc1ccc(CC(C(=O)O)S(=O)(=O)CCc2ccc(F)cc2)cc1)OCc1ccc(C(F)(F)F)cc1 (stereo not drawn) [Example 17, 2-[2-(4-Fluoro-phenyl)-ethanesulfonyl]-3-[4-(4-trifluoromethyl-benzyloxycarbonylmethyl)-phenyl]-propionic acid] | 4.4 | 18
CS(=O)(=O)Oc1ccc(CCSC(=O)c2ccc(CC(SCCc3ccc(F)cc3)C(=O)O)cc2)cc1 (stereo not drawn) [Example 18, 2-[2-(4-Fluoro-phenyl)-ethylsulfanyl]-3-{4-[2-(4-methanesulfonyloxy-phenyl)-ethylsulfanylcarbonyl]-phenyl}-propionic acid] | 3.4 | 
CCO[C@@H](Cc1ccc(OC(=O)Cc2ccc(NC(=O)OC(C)(C)C)cc2)cc1)C(=O)O [Example 22, (S)-3-{4-[2-(4-tert-Butoxycarbonylamino-phenyl)-acetoxy]-phenyl}-2-ethoxy-propionic acid] | 18 | 18
CCOC(Cc1ccc(OC(=O)Cc2nc(-c3ccccc3)oc2C)c(Cc2ccccc2)c1)C(=O)O (stereo not drawn) [Example 23, 3-{3-Benzyl-4-[2-(5-methyl-2-phenyl-oxazol-4-yl)-acetoxy]-phenyl}-2-ethoxy-propionic acid] |  | 0.053
CCOC(Cc1ccc(OC(=O)Cc2ccc(NC(=O)OC(C)(C)C)cc2)c(Cc2ccccc2)c1)C(=O)O (stereo not drawn) [Example 24, 3-{3-Benzyl-4-[2-(4-tert-butoxycarbonylamino-phenyl)-acetoxy]-phenyl}-2-ethoxy-propionic acid] |  | 0.0052
CCOC(Cc1ccc(OC(=O)Cc2nc(-c3ccccc3)oc2C)c(C)c1)C(=O)O (stereo not drawn) [Example 25, 2-Ethoxy-3-{3-methyl-4-[2-(5-methyl-2-phenyl-oxazol-4-yl)-acetoxy]-phenyl}-propionic acid] |  | 0.043
CCOC(Cc1ccc(OC(=O)Cc2ccc(NC(=O)OC(C)(C)C)cc2)c(C)c1)C(=O)O (stereo not drawn) [Example 26, 3-{4-[2-(4-tert-Butoxycarbonylamino-phenyl)-acetoxy]-3-methyl-phenyl}-2-ethoxy-propionic acid] |  | 0.073
CCOC(Cc1ccc(C(=O)OCc2ccc(OS(C)(=O)=O)cc2)cc1)C(=O)O (stereo not drawn) [Example 27, 4-(2-Carboxy-2-ethoxy-ethyl)-benzoic acid 4-methanesulfonyloxy-benzyl ester] |  | 1.4
O=C(Cc1cccc(SCc2ccccc2C(=O)O)c1)OCc1ccc(C(F)(F)F)cc1 [Example 28, 2-[3-(4-Trifluoromethyl-benzyloxycarbonylmethyl)-phenylsulfanylmethyl]-benzoic acid] | 1.3 | 2.5
